The NIST ThermoML archive (doi:10.1016/j.jct.2016.12.015)

Conditions: 101.33 kPa, Crystal, Small (less than 1 g) adiabatic calorimetry

C[C@H]1C[C@@H]2[C@H]([C@@H](O)C[C@@]3(C)[C@H]2CC[C@]3(O)C(=O)CO)[C@@]2(C)C=CC(=O)C=C12 [Methylprednisolone]
Conditions	molar entropy [J/K/mol]
5 K	0.328
10 K	2.37
15 K	6.133
20 K	11.27
25 K	17.53
30 K	24.43
35 K	31.67
40 K	39.13
45 K	46.76
50 K	54.53
60 K	70.39
70 K	86.6
80 K	103
90 K	119.5
100 K	136.1
110 K	152.7
120 K	169.2
130 K	185.7
140 K	202.1
150 K	218.5
160 K	234.8
170 K	251
180 K	267.2
190 K	283.3
200 K	299.3
210 K	315.3
220 K	331.3
230 K	347.2
240 K	363.1
250 K	379
260 K	394.8
270 K	410.6
280 K	426.4
290 K	442.3
298.15 K	455.2
300 K	458.1
310 K	473.9
320 K	489.8
330 K	505.6
340 K	521.4
350 K	537.3
